Active and inactive are the calls of the source. The calls are words filed in the database; no cut-off is given here.
What was measured:
[1] = system: MDA-MB-231; experiment: Induction of autophagy in human MDA-MB-231 cells transfected with GFP-LC3 assessed as increase in Beclin 1 level at 5 to 20 uM after 48 hrs by Western blot analysis; assay type: functional, cell-based; settings: dose 5-20 µM
[2] = target: Histone deacetylase 3 (Homo sapiens, UniProt O15379); experiment: Inhibition of HDAC3 (unknown origin)
Sequence of Histone deacetylase 3 (O15379 whole entry): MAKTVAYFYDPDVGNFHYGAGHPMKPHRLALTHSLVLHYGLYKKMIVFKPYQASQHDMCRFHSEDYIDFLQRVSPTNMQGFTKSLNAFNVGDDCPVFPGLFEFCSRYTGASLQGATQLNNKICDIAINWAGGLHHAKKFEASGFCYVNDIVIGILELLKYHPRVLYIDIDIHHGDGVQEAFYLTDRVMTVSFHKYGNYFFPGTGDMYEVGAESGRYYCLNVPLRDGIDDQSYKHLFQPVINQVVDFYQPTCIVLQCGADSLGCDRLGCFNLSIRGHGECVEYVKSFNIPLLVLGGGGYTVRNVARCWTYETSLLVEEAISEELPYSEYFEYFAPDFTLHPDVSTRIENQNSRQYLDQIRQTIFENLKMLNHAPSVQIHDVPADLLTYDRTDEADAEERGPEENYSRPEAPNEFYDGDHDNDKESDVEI

[3] = system: MDA-MB-231; experiment: Induction of apoptosis in human MDA-MB-231 cells assessed as early apoptotic cells at 10 uM by annexin V/propidium iodide staining-based flow cytometry analysis (reference value: 0.69 %); assay type: functional
[4] = target: T1, Protein deacetylase HDAC6 (Homo sapiens) (UniProt Q9UBN7); experiment: Inhibition of HDAC6 in human MDA-MB-231 cells assessed as accumulation of acetylated tubulin at 5 to 20 uM by Western blot analysis; assay type: cell-based; settings: dose 5-20 µM
T1 sequence (whole entry): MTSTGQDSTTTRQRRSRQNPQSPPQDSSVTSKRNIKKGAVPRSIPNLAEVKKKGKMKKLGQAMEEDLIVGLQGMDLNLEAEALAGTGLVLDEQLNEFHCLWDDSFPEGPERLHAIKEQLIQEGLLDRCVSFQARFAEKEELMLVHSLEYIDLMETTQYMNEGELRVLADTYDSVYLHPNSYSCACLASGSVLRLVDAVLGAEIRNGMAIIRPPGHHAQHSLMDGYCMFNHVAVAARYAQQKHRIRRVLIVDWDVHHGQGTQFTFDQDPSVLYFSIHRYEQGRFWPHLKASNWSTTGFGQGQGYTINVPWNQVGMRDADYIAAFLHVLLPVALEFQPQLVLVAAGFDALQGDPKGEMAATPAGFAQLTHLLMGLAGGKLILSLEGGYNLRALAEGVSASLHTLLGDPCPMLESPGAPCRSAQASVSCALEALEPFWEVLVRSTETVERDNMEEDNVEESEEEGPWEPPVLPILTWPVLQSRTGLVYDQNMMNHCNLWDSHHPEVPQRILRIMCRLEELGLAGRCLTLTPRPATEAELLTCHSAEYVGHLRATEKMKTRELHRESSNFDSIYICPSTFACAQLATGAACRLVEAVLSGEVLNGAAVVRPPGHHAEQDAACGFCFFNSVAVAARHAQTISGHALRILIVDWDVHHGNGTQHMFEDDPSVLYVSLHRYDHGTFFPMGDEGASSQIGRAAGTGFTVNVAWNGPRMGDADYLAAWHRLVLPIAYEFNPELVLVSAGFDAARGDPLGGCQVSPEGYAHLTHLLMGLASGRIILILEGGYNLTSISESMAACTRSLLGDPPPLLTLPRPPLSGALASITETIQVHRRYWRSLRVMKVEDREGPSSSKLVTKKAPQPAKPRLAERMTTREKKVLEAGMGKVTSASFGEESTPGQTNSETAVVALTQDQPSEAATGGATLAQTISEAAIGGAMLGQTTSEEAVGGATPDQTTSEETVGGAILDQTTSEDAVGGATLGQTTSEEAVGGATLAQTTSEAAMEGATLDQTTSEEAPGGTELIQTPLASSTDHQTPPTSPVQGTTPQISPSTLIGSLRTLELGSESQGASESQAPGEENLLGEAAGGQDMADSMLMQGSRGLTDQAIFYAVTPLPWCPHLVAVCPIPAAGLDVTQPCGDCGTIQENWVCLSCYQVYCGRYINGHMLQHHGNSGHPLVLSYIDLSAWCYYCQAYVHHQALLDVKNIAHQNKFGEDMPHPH

[5] = system: MDA-MB-231; experiment: Induction of apoptosis in human MDA-MB-231 cells assessed as early apoptotic cells at 5 uM by annexin V/propidium iodide staining-based flow cytometry analysis (reference value: 0.69 %); assay type: functional
[6] = system: MDA-MB-436; experiment: Antiproliferative activity against human MDA-MB-436 cells measured after 48 hrs; assay type: functional, cell-based; settings: MDA-MB-436, 48 h
[7] = system: MDA-MB-231; experiment: Induction of apoptosis in human MDA-MB-231 cells assessed as live cells at 20 uM by annexin V/propidium iodide staining-based flow cytometry analysis (reference value: 96.7 %); assay type: functional
[8] = system: MDA-MB-231; experiment: Induction of apoptosis in human MDA-MB-231 cells assessed as increase in caspase 3 cleavage at 5 to 20 uM by Western blot analysis; assay type: functional, cell-based; settings: dose 5-20 µM
[9] = system: MDA-MB-231; experiment: Induction of apoptosis in human MDA-MB-231 cells assessed as live cells at 5 uM by annexin V/propidium iodide staining-based flow cytometry analysis (reference value: 96.7 %); assay type: functional
[10] = target: T1, Protein deacetylase HDAC6 (Homo sapiens); experiment: Binding affinity to HDAC6 in human MDA-MB-231 cells assessed as increase in thermal stability at 10 uM measured at 6 hrs by CETSA; assay type: cell-based
[11] = target: T2, Serine/threonine-protein kinase mTOR (Homo sapiens, UniProt P42345); experiment: Inhibition of mTOR (unknown origin) at 0.5 uM relative to control
[12] = system: MDA-MB-231; experiment: Induction of apoptosis in human MDA-MB-231 cells assessed as late apoptotic cells at 10 uM by annexin V/propidium iodide staining-based flow cytometry analysis (reference value: 2.34 %); assay type: functional
[13] = system: MDA-MB-231; experiment: Induction of apoptosis in human MDA-MB-231 cells assessed as early apoptotic cells at 20 uM by annexin V/propidium iodide staining-based flow cytometry analysis (reference value: 0.69 %); assay type: functional
[14] = system: MDA-MB-231; experiment: Induction of apoptosis in human MDA-MB-231 cells assessed as live cells at 10 uM by annexin V/propidium iodide staining-based flow cytometry analysis (reference value: 96.7 %); assay type: functional
[15] = target: T2, Serine/threonine-protein kinase mTOR; experiment: Inhibition of mTOR in human MDA-MB-231 cells assessed as decrease in p70s6k phosphorylation at […] residue at 5 to 20 uM by Western blot analysis; assay type: cell-based; settings: dose 5-20 µM
[16] = system: MDA-MB-231; experiment: Induction of apoptosis in human MDA-MB-231 cells assessed as increase in PARP cleavage at 5 to 20 uM by Western blot analysis; assay type: functional, cell-based; settings: dose 5-20 µM
[17] = system: MDA-MB-468; experiment: Antiproliferative activity against human MDA-MB-468 cells measured after 48 hrs; assay type: functional, cell-based; settings: MDA-MB-468, 48 h
[18] = target: Histone deacetylase 2 (Homo sapiens, UniProt Q92769); experiment: Inhibition of HDAC2 (unknown origin)
Sequence of Histone deacetylase 2 (Q92769 whole entry): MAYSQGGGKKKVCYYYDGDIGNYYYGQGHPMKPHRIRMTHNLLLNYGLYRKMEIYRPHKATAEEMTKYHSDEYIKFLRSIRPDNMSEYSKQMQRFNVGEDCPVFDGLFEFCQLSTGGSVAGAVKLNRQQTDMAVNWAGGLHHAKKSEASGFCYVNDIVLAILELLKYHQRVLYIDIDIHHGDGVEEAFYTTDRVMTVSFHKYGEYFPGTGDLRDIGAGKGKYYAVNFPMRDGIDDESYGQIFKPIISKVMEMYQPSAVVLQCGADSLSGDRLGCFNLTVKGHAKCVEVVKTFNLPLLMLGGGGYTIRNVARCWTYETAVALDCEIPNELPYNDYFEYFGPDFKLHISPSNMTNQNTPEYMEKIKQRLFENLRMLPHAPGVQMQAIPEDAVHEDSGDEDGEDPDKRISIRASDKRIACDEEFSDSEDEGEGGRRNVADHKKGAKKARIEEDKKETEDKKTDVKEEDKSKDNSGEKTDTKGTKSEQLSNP

[19] = system: MDA-MB-231; experiment: Induction of autophagy in human MDA-MB-231 cells transfected with GFP-LC3 assessed as accumulation of LC3 puncta at 5 to 20 uM after 48 hrs by Western blot analysis; assay type: functional, cell-based; settings: dose 5-20 µM
[20] = target: Histone deacetylase 1 (Homo sapiens, UniProt Q13547); experiment: Binding affinity to HDAC1 in human MDA-MB-231 cells assessed as increase in thermal stability at 10 uM measured at 6 hrs by CETSA; assay type: cell-based
Sequence of Histone deacetylase 1 (Q13547 whole entry): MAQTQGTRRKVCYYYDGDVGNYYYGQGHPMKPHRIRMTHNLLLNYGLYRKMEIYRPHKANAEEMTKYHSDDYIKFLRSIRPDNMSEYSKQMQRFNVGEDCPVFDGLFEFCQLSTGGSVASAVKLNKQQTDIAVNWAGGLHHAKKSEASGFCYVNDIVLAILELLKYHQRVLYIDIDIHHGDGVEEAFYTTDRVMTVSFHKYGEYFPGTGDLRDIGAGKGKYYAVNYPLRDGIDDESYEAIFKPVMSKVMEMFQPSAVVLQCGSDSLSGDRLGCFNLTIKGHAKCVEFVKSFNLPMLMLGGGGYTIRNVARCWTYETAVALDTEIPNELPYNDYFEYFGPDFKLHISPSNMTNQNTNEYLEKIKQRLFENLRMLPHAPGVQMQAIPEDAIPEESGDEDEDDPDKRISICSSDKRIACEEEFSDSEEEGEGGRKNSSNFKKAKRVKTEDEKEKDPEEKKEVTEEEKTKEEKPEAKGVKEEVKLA

- IC50 [2]: 0.414 µM
- inhibition [4]: Active
- IC50 [6]: 10.6 µM
- Activity [10]: Active
- inhibition [11]: 91.4%
- inhibition [15]: Active
- IC50 [17]: 14.3 µM
- IC50 [18]: 0.374 µM
- Activity [20]: inactive
Compound: CN1CCN(c2nc(-c3ccc(C(=O)NO)cc3)nc3cc(Cl)ccc23)CC1
- Activity [1]: Active
- Activity [3]: 7.95%
- Activity [5]: 4.84%
- Activity [7]: 53.9%
- Activity [8]: Active
- Activity [9]: 88.1%
- Activity [12]: 22.4%
- Activity [13]: 11.3%
- Activity [14]: 69.1%
- Activity [16]: Active
- Activity [19]: Active

Reference: ChEMBL document CHEMBL4811304, “Design, synthesis and biological evaluation of dual mTOR/HDAC6 inhibitors in MDA-MB-231 cells” (Bioorg Med Chem Lett, 2021)
